Laboratory results as given in patent publication US6664231B1, “Anti-fungal peptides” (priority 1993, dated 2003).
≈ marks a conversion by molar mass, not a printed value. Where “and” joins values, the source holds several entries; their conditions need not be identical. Equal entries are not always repeated. Where two headings read alike, the source gives them in different places.

Key:
[1] = tested on: Fusarium solani ATCC 36031; experiment: microbe, parasite or virus in culture; assay type: cell-based; conditions: Fusarium solani, ATCC36031; read-out: Minimum Fungicidal Concentration, Fusarium solani ATCC 36031
Experimental: (§1) The anti-fungal activity of Domain III derived peptides was evaluated against a variety of fungal species, including species of Candida. Cryptococcus, Fusarium, Trichophyton, and Aspergillus, by an additional assay protocol utilizing Alamar Blue. Alamar Blue is an indicator dye formulated to measure quantitatively the proliferation of a variety of human or animal cells, bacteria, or fungi. It consists of an oxidation-reduction (REDOX) indicator that yields a colorimetric change in response to metabolic activity. For these experiments, species of Candida and Cryptococcus were grown in Sabouraud's dextrose broth (SDB) overnight. Strains of filamentous fungi (Aspergilius, Fusanum, Trichophyton) were obtained by irrigation of a confluent culture from a petri dish. Cells were washed and adjusted to a concentration of 5.0×10^3/mL in fresh SDB. […] Controls included amphotericin B, fluconazole, ketoconazole and griseofulvin. Antifungal drugs were also diluted in the same manner. Assays were performed in 96-well microuiter plates. […] The wells to be plated were determined by OD590 readings. The lowest concentration of peptide which maintained the blue color (or OD reading) of the blank was chosen along with the next two higher concentrations. Plates were allowed to grow for 18-48 hours depending on the rate of growth of each fungus. Minimal fungicidal activity (MFC) was determined as a 99.9% killing of the starting inoculum.

[2] = tested on: Candida parapsilosis ATCC 22019; experiment: microbe, parasite or virus in culture; assay type: cell-based; conditions: Lodderomyces parapsilosis, ATCC22019; read-out: Minimum Fungicidal Concentration, Candida parapsilosis ATCC 22019
Experimental: as §1

[3] = tested on: Candida glabrata ATCC 2001; experiment: microbe, parasite or virus in culture; assay type: cell-based; conditions: Nakaseomyces glabratus, ATCC2001; read-out: Minimum Fungicidal Concentration, Candida glabrata ATCC 2001
Experimental: as §1

[4] = tested on: Candida albicans (SLU-1 and ATCC strains); experiment: microbe, parasite or virus in culture; assay type: cell-based; conditions: Candida albicans
Experimental: as §1

[5] = tested on: Aspergillus niger ATCC 16404; experiment: microbe, parasite or virus in culture; assay type: cell-based; conditions: Aspergillus niger, ATCC16404; read-out: Minimum Fungicidal Concentration, Aspergillus niger ATCC 16404
Experimental: as §1

[6] = tested on: Trychophyton rubrum ATCC 28188; experiment: organism not typed; assay type: cell-based; conditions: read-out: Minimum Fungicidal Concentration, Trychophyton rubrum ATCC 28188
Experimental: as §1

[7] = tested on: Cryptococcus neoformans ATCC 13690; experiment: microbe, parasite or virus in culture; assay type: cell-based; conditions: Cryptococcus neoformans, ATCC13690; read-out: Minimum Fungicidal Concentration, Cryptococcus neoformans ATCC 13690
Experimental: as §1

Aspergillus ATCC 13073 = experiment: microbe, parasite or virus in culture; assay type: cell-based; conditions: Aspergillus, ATCC13073; read-out: Minimum Fungicidal Concentration, Aspergillus ATCC 13073
Experimental: as §1

[8] = tested on: C. albicans (SLU-1 strain); experiment: Survival of mice systemically infected with Candida albicans; assay type: in vivo, mouse; conditions: 1.24×10^5 C. albicans i.v.; 3 doses i.v. (Day 0, 2, 4); 10 mg/kg XMP.36, 5 mg/kg XMP.97, 10 mg/kg XMP.102, 1 mg/kg amphotericin B; FIG. 4
Experimental: Groups of 15 male DBA/2J mice at age 6-8 weeks (Jackson Laboratory, Bar Harbor, Me.) were inoculated with 1.24×10^5 C. albicans (SLU-1 strain as described in Example 2) by intravenous injection into the tail vein. Cells were prepared for animal injection as follows. A single colony was selected and used to inoculate a 5 mL tube of Sabouraud dextrose broth. Incubation was at 30° C. with shaking to allow aeration for a period of 15-18 hours. Four mL of the overnight culture were added to 100 mL of fresh Sabouraud dextrose broth (1:25 dilution) and incubated for 4 hours. The 100 mL culture was pelleted at 1,500×g for 5 minutes. Cells were washed twice by adding 20 mL D-PBS, vortexing and re-centrifuging. Cells were collected in one tube and a sample is diluted 1:10 to be measured by OD570 (1 OD unit=3×10^7 CFU/mL). The cells were diluted to the desired dose in D-PBS and kept at 4° C. until used. Doses were confirmed by performing serial ten-fold dilutions and plating 50 μl per dilution on Sabouraud dextrose agar. Colonies were counted the following day after overnight incubation at 37° C. A […] culture yielded approximately 1×10^9 CFU/mL.
Immediately after fungal challenge, the mice were intravenously injected via the tail vein with a 0.1 mL volume of 10 mg/kg XMP.36, 5 mg/kg XMP.97, 10 mg/kg XMP.102, 1 mg/kg amphotericin B (Sigma, St. Louis, Mo.), or phosphate buffered saline (PBS) as a control. Treatment with the same amounts of peptides, amphotericin B or PBS was repeated at Day 2 and Day 4 (except that the second dose of XMP.36 was given at a dose of 5 mg/kg). Mice were monitored twice daily for mortality until termination of the study at Day 28. […] In FIG. 4, the symbol “X” represents survival after treatment with amphotericin B; open squares, treatment with XMP.97; open circles, treatment with XMP.36; open diamonds, treatment with XMP.102; and open triangles, treatment with buffer. Statistical significance was evaluated using the Lifetest Survival Curve analysis. [Lawless, Statistical Models and Methods for Lifetime Data, John Wiley & Sons, New York (1982).] The duration and almost linear decline in survival is analogous to human opportunistic candidiasis.
In additional 3-dose studies, groups of 15 mice were injected with a fungal challenge of 0.5×10^5 Candida cells, prepared for injection as described above, followed by treatment at Day 0, Day 2 and Day 5 with a 0.1 mL volume of 10 mg/kg XMP.127, 5 mg/kg XMP.13, 5 mg/kg XMP.37, 1 mg/kg amphotericin B, or PBS as a control. […] In FIG. 5, the symbol “X” represents survival after treatment with amphotericin B; open circles, treatment with XMP.127; filled triangles, treatment with buffer; open squares, treatment with XMP.37; open triangles, treatment with XMP.13.
Further studies to determine the effectiveness of anti-fungal peptides were performed at an increased dosing regimen (6 doses rather than 3 doses as described above). Groups of 9 week-old male DBA/2J mice were inoculated with concentrations of 2.7×10^5 Candida cells (prepared as described above) by intravenous injection in the tail vein. Immediately after fungal challenge, the mice were treated with a 0.1 mL volume of 10 mg/kg XMP.284, 1 mg/kg amphotericin B or PBS as a control at Day 0, Day 2, Day 4, Day 7, Day 9 and Day 11. All amphotericin B-treated animals were protected.
Additional 6-dose experiments were conducted as described above, using inocula of 0.5-3.0×10^5 Candida cells and using 0.01, 0.05, 0.1, 0.5, 1.0 or 5.0 mg/kg doses of peptide.

[9] = tested on: polyene-resistant (ATCC 38247), 5-fluorocytosine-resistant (ATCC 44373), azole-resistant (ATCC 62342), ketoconazole-resistant (ATCC 64124) C. albicans; experiment: Fungicidal activity on commercially-available drug-resistant Candida strains; assay type: cell-based, Candida albicans; conditions: ATCC 38247, 44373, 62342, 64124
Experimental: Further experiments were performed to determine the anti-fungal activity of Domain III derived peptides on commercially-available strains of Candida considered resistant to other anti-fungal agents: polyene-resistant C. albicans (ATCC Accession No. 38247), 5-fluorocytosine-resistant C. albicans (ATCC No. 44373), azole-resistant C. albicans (ATCC No. 62342), and ketoconazole-resistant C. albicans (ATCC No. 64124).

[10] = tested on: C. albicans (CA-1, Strain SLU-1); experiment: Radial diffusion assay; assay type: cell-based, Candida albicans; conditions: pmoles of peptide added to well to achieve a 30 mm^2 zone, PROBIT analysis; crude or purified (P′) peptide
In short: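 Peptides, serially diluted 2-fold in D-PBS (top ~1 mg/mL), diffused 3 h at 37° C into pH 7.4 phosphate-buffered agarose seeded with 1×10^6 CFU/mL yeast, before overnight growth under a 6% Sabouraud overlayer. Net inhibition zones measured after Coomassie staining; PROBIT fit of log pmol vs area gave pmol for 30 mm^2.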

Candida lusitaniae = experiment: Radial diffusion assay, Candida species (Table 2); assay type: cell-based
Experimental: (§2) The anti-fungal activity of Domain III derived peptides was also evaluated in vitro against a variety of fungal species, including Candida glabrata, Candida krusei, Candida lusitaniae, Candida parapsilosis, and Candida tropicalis. For these experiments, one colony of each of the above-listed Candida strains was picked from a Sabouraud's dextrose agar (SDA) plate and inoculated into 5 mL of Sabouraud's dextrose broth (SDB, 2% dextrose and 1% neopeptone) or, for C. krusei, Yeast Malt broth (YM, Becton Dickenson, Cockeysville, Md., cat no. BL 11405) in 12 mL polyproplyene snap-cap tubes. The tube cultures were incubated overnight with shaking at 37° C.
(§3) Cultures were harvested when the OD570 of a 1:10 dilution was greater than or equal to the following values: 0.083 for Candida glabrata, 0.154 for Candida krusei, 0.117 for Candida lusitaniae, 0.076 for Candida parapsilosis, and 0.192 for Candida tropicalis. Cells were centrifuged for 7 minutes in an Eppendorf microfuge at 3,000 rpm (about 1,500 g). The cell pellet was resuspended in 1 mL PBS and approximately 1×10^7 cells in about 0.5 mL were added to 10 mL of cooled underlay agar (3% SBD, 1% agarose, 0.02% Tween 20, 10 mM sodium phosphate buffer, pH 7.4 at about 45° C.). The suspension was poured into square petri plates, allowed to solidify, and wells cut as described above.
(§4) Peptides were two-fold serially diluted with D-PBS from about 20 μL of a starting concentration of approximately 1 mg/mL. Five μL of peptide dilution were added per well and allowed to diffuse for at least about 30 minutes into the agar at […] (to allow complete diffusion). Then 10 mL of molten overlayer agarose (6% SDB, 1% agarose, 10 mM sodium phosphate buffer, pH 7.4 at about 45° C.) were added and the plates were incubated inverted at […] overnight. Plates were stained with a dilute Coomassie solution, inhibition zones were measured with calipers and net areas were calculated, then converted to pmole values by PROBIT analysis.

Candida tropicalis = experiment: Radial diffusion assay, Candida species (Table 2); assay type: cell-based
Experimental: as §2, §3, §4

Candida krusei = experiment: Radial diffusion assay, Candida species (Table 2); assay type: cell-based
Experimental: as §2, §3, §4

Candida parapsilosis = experiment: Radial diffusion assay, Candida species (Table 2); assay type: cell-based
Experimental: as §2, §3, §4

Candida glabrata = experiment: Radial diffusion assay, Candida species (Table 2); assay type: cell-based
Experimental: as §2, §3, §4

Candida albicans = experiment: Radial diffusion assay, Candida species (Table 2); assay type: cell-based; conditions: higher effective concentration of agarose than Table 1
[11] = ATCC10231, strain ATCC 10231, read-out: Minimum Fungicidal Concentration, Candida albicans ATCC 10231
[12] = ATCC18840, strain ATCC 18840, read-out: Minimum Fungicidal Concentration, Candida albicans ATCC 18840
[13] = ATCC26555, strain ATCC 26555, read-out: Minimum Fungicidal Concentration, Candida albicans ATCC 26555
[14] = ATCC44808, strain ATCC 44808, read-out: Minimum Fungicidal Concentration, Candida albicans ATCC 44808
[15] = ATCC90028, strain ATCC 90028, read-out: Minimum Fungicidal Concentration, Candida albicans ATCC 90028

Compound | MFC [1] | MFC [2] | MFC [3] | MFC [4, 11] | MFC [4, 12] | MFC [4, 13] | MFC [4, 14] | MFC [4, 15] | MFC [5] | Fungicidal activity on resistant strains [9] | C. albicans pmol/30 mm^2 zone [10] | other results
CC(=O)N1CCN(c2ccc(OCC3COC(Cn4ccnc4)(c4ccc(Cl)cc4Cl)O3)cc2)CC1 (stereo not drawn) [Ketoconazole, ketoconazole] | > 10 µg/mL | 5 µg/mL (≈ 9.41 µM) | > 10 µg/mL | > 10 µg/mL | > 10 µg/mL | > 10 µg/mL | > 10 µg/mL | > 10 µg/mL | > 10 µg/mL | – | – | –
OC(Cn1cncn1)(Cn1cncn1)c1ccc(F)cc1F [Fluconazole, fluconazole] | > 10 µg/mL | > 10 µg/mL | > 10 µg/mL | > 10 µg/mL | > 10 µg/mL | > 10 µg/mL | > 10 µg/mL | > 10 µg/mL | > 10 µg/mL | – | – | MFC [6]: > 10 µg/mL; MFC [7]: > 10 µg/mL; MFC (Aspergillus ATCC 13073): > 50 µg/mL; MFC ([4]; strain SLU-1, read-out: Minimum Fungicidal Concentration, Candida albicans SLU-1): > 10 µg/mL
H-KSKVGALIQLFHKK-NH2 [XMP.36] | – | – | – | – | – | – | – | – | – | not reduced | 197 pmol/30 mm^2 zone and 231 pmol/30 mm^2 zone | mice survived until Day 28 [8]: 33%
H-KSKVGVLIQLFHKK-NH2 [XMP.166] | – | – | – | – | – | – | – | – | – | not reduced | 171 pmol/30 mm^2 zone | Anti-fungal activity: pmol/30 mm^2 zone, Candida lusitaniae (Candida lusitaniae): 1,133 pmol/30 mm^2 zone; Anti-fungal activity: pmol/30 mm^2 zone, Candida tropicalis (Candida tropicalis): 864 pmol/30 mm^2 zone; Anti-fungal activity: pmol/30 mm^2 zone, Candida krusei (Candida krusei): 3,240 pmol/30 mm^2 zone; Anti-fungal activity: pmol/30 mm^2 zone, Candida parapsilosis (Candida parapsilosis): 1,199 pmol/30 mm^2 zone; Anti-fungal activity: pmol/30 mm^2 zone, Candida glabrata (Candida glabrata): 2,100 pmol/30 mm^2 zone; Anti-fungal activity: pmol/30 mm^2 zone, Candida albicans (Candida albicans): >3,079 pmol/30 mm^2 zone
